Results reported in patent publication US12129276B2, “Oxysterols and methods of use thereof” (SAGE THERAPEUTICS, INC., priority 2014, dated 2024).

Key:
[1] = target: T1, NR1/NR2A glutamate receptors expressed in mammalian cells (Homo sapiens, UniProt Q05586+Q12879); test: Whole-cell patch clamp of mammalian cells (IWB, Ion Works Barracuda); format: cell-based; conditions: 3 μM test article, co-application with EC20 L-glutamate and 30 μM glycine
T1 construct: expressed in transfected cells
Method: The whole-cell patch-clamp technique was used to investigate the effects of compounds on NR1/NR2A glutamate receptors expressed in mammalian cells.
Test article effects were evaluated in 8-point concentration-response format (4 replicate wells/concentration). All test and control solutions contained 0.3% DMSO and 0.01% Kolliphor® EL (C5135, Sigma). The test article formulations were loaded in a 384-well compound plate using an automated liquid handling system (SciClone ALH3000, Caliper LifeScienses). The measurements were performed using Ion Works Barracuda platform following this procedure: Electrophysiological Procedures: • a) Intracellular solution (mM): 50 mM CsCl, 90 mM CsF, 2 mM MgCl2, 5 mM EGTA, 10 mM HEPES. Adjust to pH 7.2 with CsOH. • b) Extracellular solution, HB-PS (composition in mM): NaCl, 137; KCl, 1.0; CaCl2, 5; HEPES, 10; Glucose, 10; pH adjusted to 7.4 with NaOH (refrigerated until use). • c) Holding potential: −70 mV, potential during agonist/PAM application: −40 mV. Recording Procedure: • a) Extracellular buffer will be loaded into the PPC plate wells (11 μL per well). Cell suspension will be pipetted into the wells (9 μL per well) of the PPC planar electrode. • b) Whole-cell recording configuration will be established via patch perforation with membrane currents recorded by on-board patch clamp amplifiers. • c) Two recordings (scans) will be performed. First, during pre-application of PAM alone (duration of pre-application—5 min) and second, during test articles and agonist (EC20 L-glutamate and 30 μM glycine) co-application to detect positive modulatory effects of the test article.
Test Article Administration: The first pre-application will consist of the addition of 20 μL of 2× concentrated test article solution and, second, of 20 μL of 1× concentrated test article and agonist at 10 μL/s (2 second total application time).

[2] = target: T2, NMDA receptor (GRIN1/GRIN2A subunits) expressed in HEK cells (Homo sapiens, UniProt Q05586+Q12879); test: Whole-cell patch clamp of mammalian cells, NMDA potentiation; format: cell-based; design: key: “A” indicates >5 to 50%; B: >50%; C indicates not active in the assay; conditions: 1 μM test article, 30 μM NMDA and 5.0 μM glycine, holding potential −80 mV
T2 construct: expressed in transfected cells
Method: NMDA potentiation was assessed using either whole cell patch clamp of mammalian cells which expressed NMDA receptors, or using two-electrode voltage clamp (TEVC) of Xenopus laevis oocytes expressing NMDA receptors.
The whole-cell patch-clamp technique was used to investigate the effects of compounds on the NMDA receptor (GRIN1/GRIN2A subunits) expressed in HEK cells. NMDA/Glycine peak and steady-state currents were recorded from stably transfected cells expressing the NMDA receptor and the modulatory effects of the test items on these currents were investigated.
Cells were stably transfected with human GRIN1 (variant NR1-3). These cells were transiently transfected (Lipofectamine™) with GRIN2A cDNA and CD8 (pLeu) antigene cDNA. About 24-72 hours following transfection 1 μl Dynabeads M-45 CD8 was added to identify successfully transfected cells (Jurman et al., Biotechniques (1994) 17:876-881). Cells were passaged to a confluence of 50-80%. Cells were seeded onto Poly-L-Lysine coated cover slips covered with culture complete medium in a 35 mm culture dish. Confluent clusters of cells are electrically coupled (Pritchett et al., Science (1988), 242:1306-8). Because responses in distant cells are not adequately voltage clamped and because of uncertainties about the extent of coupling (Verdoorn et al., Neuron (1990), 4:919-28), cells were cultivated at a density that enables single cells (without visible connections to neighboring cells) to be measured. Cells were incubated at 37° C. in a humidified atmosphere with 5% CO2 (rel. humidity about 95%). The cells were continuously maintained in and passaged in sterile culture flasks containing a 1:1 mixture of Dulbecco's modified eagle medium and nutrient mixture F-12 (D-MEM/F-12 1×, liquid, with L-Glutamine) supplemented with 9% fetal bovine serum and 0.9% Penicillin/Streptomycin solution. The complete medium was supplemented with 3.0 μg/ml Puromycin.
Whole cell currents were measured with HEKA EPC-10 amplifiers using PatchMaster software. Cell culture dishes for recordings were placed on the dish holder of the microscope and continuously perfused (1 ml/min) with “bath solution” (NaCl 137 mM, KCl 4 mM, CaCl2) 1.8 mM, MgCl2 1 mM, HEPES 10 mM, D-Glucose 10 mM, pH (NaOH) 7.4). All solutions applied to cells including the pipette solution were maintained at room temperature (19° C.-30° C.). After formation of a Gigaohm seal between the patch electrodes and transfected individual HEK 293 cells (pipette resistance range: 2.5 MΩ-6.0 MΩ; seal resistance range: >1 GQ) the cell membrane across the pipette tip was ruptured to assure electrical access to the cell interior (whole-cell patch-configuration). At this point the bath solution is switched to “NMDA bath solution” (NaCl 137 mM, KCl 4 mM, CaCl2) 2.8 mM, HEPES 10 mM, D-Glucose 10 mM, Cremophore 0.02%, pH (NaOH) 7.4). NMDA inward currents were measured upon application of 30 μM NMDA (and 5.0 μM Glycine) to patch-clamped cells (2 applications) for 5 s. The cells were voltage clamped at a holding potential of −80 mV. For the analysis of test articles, NMDA receptors were stimulated by 30 μM NMDA and 5.0 μM Glycine after sequential pre-incubation of increasing concentrations of the test article. Pre-incubation duration was 30 s. Stimulation duration was 5 s Test articles were dissolved in DMSO to form stock solutions of 0.1 mM and 1 mM. Test articles were diluted to 0.1 μM and 1 μM in “NMDA bath solution”. Both concentrations of test articles were tested on each cell. […]

T1 sequence (Q12879 23-1464, other chains not shown): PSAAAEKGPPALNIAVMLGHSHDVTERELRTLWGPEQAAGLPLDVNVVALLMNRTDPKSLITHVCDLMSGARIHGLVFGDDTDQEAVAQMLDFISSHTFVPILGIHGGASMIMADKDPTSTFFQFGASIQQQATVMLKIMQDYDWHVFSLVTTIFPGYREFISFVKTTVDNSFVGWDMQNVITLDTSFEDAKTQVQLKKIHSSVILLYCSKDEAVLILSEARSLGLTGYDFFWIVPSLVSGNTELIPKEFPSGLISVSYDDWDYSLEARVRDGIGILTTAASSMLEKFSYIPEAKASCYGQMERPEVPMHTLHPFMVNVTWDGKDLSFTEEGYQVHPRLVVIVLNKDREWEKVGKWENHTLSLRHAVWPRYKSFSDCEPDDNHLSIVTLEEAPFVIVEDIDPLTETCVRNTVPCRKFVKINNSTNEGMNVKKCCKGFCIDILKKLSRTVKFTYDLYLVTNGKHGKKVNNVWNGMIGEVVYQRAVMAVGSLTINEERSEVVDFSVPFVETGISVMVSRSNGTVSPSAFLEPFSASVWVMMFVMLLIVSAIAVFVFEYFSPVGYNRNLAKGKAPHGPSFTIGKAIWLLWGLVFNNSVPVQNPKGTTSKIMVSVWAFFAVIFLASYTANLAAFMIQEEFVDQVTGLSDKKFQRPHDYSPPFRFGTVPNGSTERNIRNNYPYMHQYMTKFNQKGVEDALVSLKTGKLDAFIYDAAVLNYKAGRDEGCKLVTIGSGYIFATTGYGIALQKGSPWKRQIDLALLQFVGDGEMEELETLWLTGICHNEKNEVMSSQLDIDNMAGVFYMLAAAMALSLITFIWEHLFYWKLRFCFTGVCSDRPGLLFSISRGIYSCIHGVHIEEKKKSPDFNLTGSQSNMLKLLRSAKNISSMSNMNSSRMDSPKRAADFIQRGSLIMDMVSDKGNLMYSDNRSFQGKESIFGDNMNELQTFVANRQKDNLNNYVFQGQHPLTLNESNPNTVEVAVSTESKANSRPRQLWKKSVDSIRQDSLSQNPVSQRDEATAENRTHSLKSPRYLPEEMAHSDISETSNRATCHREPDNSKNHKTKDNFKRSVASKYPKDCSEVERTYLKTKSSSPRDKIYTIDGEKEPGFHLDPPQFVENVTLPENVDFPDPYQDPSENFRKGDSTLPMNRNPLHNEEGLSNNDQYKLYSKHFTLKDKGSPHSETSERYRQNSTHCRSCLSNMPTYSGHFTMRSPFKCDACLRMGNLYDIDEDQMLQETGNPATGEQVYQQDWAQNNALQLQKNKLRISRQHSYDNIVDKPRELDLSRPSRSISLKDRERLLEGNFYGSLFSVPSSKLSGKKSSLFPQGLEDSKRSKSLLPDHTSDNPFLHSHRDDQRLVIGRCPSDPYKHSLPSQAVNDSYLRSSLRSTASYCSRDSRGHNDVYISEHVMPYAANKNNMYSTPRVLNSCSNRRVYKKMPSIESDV
T2 sequence (Q12879 23-1464, other chains not shown): as above

| SMILES | GluN2A PCA IWB Ephys % potentiation at 3 μM [1] | NMDA 1a2A (%) Potentiation 1 μM [2] |
| --- | --- | --- |
| COC[C@]12CC[C@](C)(O)C[C@@H]1CC[C@H]1[C@@H]3CC[C@H]([C@H](C)CCC(O)C(F)(F)F)[C@@]3(C)CC[C@@H]12 (stereo partly shown) | B (“B” indicates potentiation of >150%) | – |
| COC[C@]12CC[C@](C)(O)C[C@@H]1CC[C@H]1[C@@H]3CC[C@H]([C@H](C)CCCO)[C@@]3(C)CC[C@@H]12 | – | C |
| COC[C@]12CC[C@](C)(O)C[C@@H]1CC[C@H]1[C@@H]3CC[C@H]([C@H](C)CCC(C)(C)O)[C@@]3(C)CC[C@@H]12 [drawing 26] | – | B (B: >50%) |
| COC[C@]12CC[C@](C)(O)CC1=CC[C@@H]1[C@@H]2CC[C@]2(C)[C@@H]([C@H](C)CCC(C)(C)O)CC[C@@H]12 [drawing 28] | A (“A” indicates 10 to 150%) | – |
| CCC(O)(CC)CC[C@@H](C)[C@H]1CC[C@H]2[C@@H]3CC=C4C[C@@](C)(O)CC[C@]4(COC)[C@H]3CC[C@]12C | A (“A” indicates 10 to 150%) | – |
| COC[C@]12CC[C@](C)(O)CC1=CC[C@@H]1[C@@H]2CC[C@]2(C)[C@@H]([C@H](C)CCC(C)(C)O)CC[C@@H]12 [drawing 25] | – | A (“A” indicates >5 to 50%) |
| C[C@H](CCC(C)(C)O)[C@H]1CC[C@H]2[C@@H]3CC=C4C[C@@H](O)CC[C@]4(CO)[C@H]3CC[C@]12C | – | A (“A” indicates >5 to 50%) |
| COC[C@]12CC[C@](C)(O)CC1=CC[C@@H]1[C@@H]2CC[C@]2(C)[C@@H]([C@H](C)CCCO)CC[C@@H]12 | – | A (“A” indicates >5 to 50%) |
| COC[C@]12CC[C@](C)(O)CC1=CC[C@@H]1[C@@H]2CC[C@]2(C)[C@@H]([C@H](C)CCC(O)C(F)(F)F)CC[C@@H]12 (stereo partly shown) | A (“A” indicates 10 to 150%) | – |
| COC[C@]12CC[C@](C)(O)C[C@@H]1CC[C@H]1[C@@H]3CC[C@H]([C@H](C)CCC(C)(C)O)[C@@]3(C)CC[C@@H]12 [drawing 32] | A (“A” indicates 10 to 150%) | – |
